Reference: patent US20250304635A1, “BIRINAPANT POLYMORPH H” (Medivir AB, priority 2022, published 2025)

Legend:
Type in all cases: physicochemical
[1] = Stability studies under elevated temperature and relative humidity; crystalline form by XRPD, birefringence by polarized light microscopy
Method: XRPD patterns were collected with a PANalytical Empyrean diffractometer using an incident beam of Cu radiation produced using a long, fine-focus source. An elliptically graded multilayer mirror was used to focus Cu Kα X-rays through the specimen and onto the detector. Prior to analysis, a silicon specimen (NIST SRM 640e) was analyzed to verify the observed position of the Si 111 peak is consistent with the NIST-certified position. A specimen of the sample was sandwiched between 3-μm-thick films and analyzed in transmission geometry. A beam-stop, short antiscatter extension, and antiscatter knife edge were used to minimize the background generated by air. Soller slits for the incident and diffracted beams were used to minimize broadening and asymmetry from axial divergence. Diffraction patterns were collected using a scanning position-sensitive detector (X′Celerator) located 240 mm from the specimen and Data Collector software v. 5.5. Additional stability studies under elevated temperature and relative humidity (RH) conditions were also performed. Samples of birinapant form H were subjected to various temperature and humidity conditions for up to 105 days, and samples were taken at 17, 33, and 105 days. For each sample the identity of the crystalline form of the sample was assessed using XRPD and the birefringence of the sample was assessed using polarized light microscopy. Additionally, XRPD patterns for several time points are provided for the 60° C. study, the 30° C./62% RH study, and the 40° C./75% RH study in FIGS. 6, 7, and 8, respectively. The time points shown are at the start of the study (top pattern), after 17 days (pattern second from top), after 33 days (pattern third from top), and after 105 days (bottom pattern). Additional stability studies under elevated temperature and relative humidity (RH) conditions were also performed. Samples of birinapant form H were subjected to various temperature and humidity conditions for up to 182 days, and samples were taken at […]. For each sample the identity of the crystalline form of the sample was assessed using XRPD and the birefringence of the sample was assessed using polarized light microscopy. The “RESULT” column indicates the form that was observed. Additionally, XRPD patterns for several time points are provided for the 60° C. study, the 30° C./62% RH study, and the 40° C./75% RH study in FIG. 9. The spectra shown in FIG. 9 correspond to the 60° C. study after 33 days (top trace), the 60° C. study after 182 days (trace second from top), the 30° C./62% RH study after 33 days (trace third from top), the 30° C./62% RH study after 182 days (trace fourth from top), the 40° C./75% RH study after 33 days (trace fifth from top), and the 40° C./75% RH study after 182 days (trace sixth from top). A representative XRPD trace for birinapant form H prior to stressing is also shown for comparison (bottom trace).

[2] = as above; remark: listed apart in the source
[3] = Stability study: material left open to air at room temperature and exposed to light for one month (HPLC, Karl Fischer); settings: room temperature, exposed to light
Method: A stability study of birinapant form H was performed by leaving the material open to air at room temperature and exposed to light for one month. […] A stability study of birinapant form H was performed by leaving the material open to air at room temperature and exposed to light for one month.

TGA study = settings: between about 25° C. and 300° C.
Method: TGA analysis was performed using a Mettler-Toledo TGA/DSC3 analyzer. Temperature and enthalpy adjustments were performed using indium, tin, and zinc, and then verified with indium. The balance was verified with calcium oxalate. The sample was placed in an open aluminum pan. The pan was hermetically sealed, the lid pierced, and then inserted into the TG furnace. A weighed aluminum pan configured as the sample pan was placed on the reference platform. The furnace was heated under nitrogen. Each sample was heated from ambient temperature to 350° C. at 10° C./min. The thermograms were plotted by reference temperature (x-axis) and results were reported according to sample temperatures. Briefly, a sample of biripant Form H was heated from about 25° C. to about 400° C. […] Between about 340° C. and 400° C., weight loss was observed, corresponding to the thermal decomposition of birinapant.

[4] = Dynamic vapor sorption (DVS) study; parameters: Hysteresis: unit not given here; settings: 25° C.
Method: Automated vapor sorption (VS) data were collected on a Surface Measurement System DVS Intrinsic instrument. Samples were not dried prior to analysis. Sorption and desorption data were collected over a range from 5% to 95% RH at 10% RH increments under a nitrogen purge. The equilibrium criterion used for analysis was less than 0.0100% weight change in 5 minutes with a maximum equilibration time of 3 hours. Data were not corrected for the initial moisture content of the samples. This study was performed at a temperature of 25° C., and the relative humidity was cycled between about 5% and about 95%.

[5] = target RH 95.0%, sample RH 95.7%

Observation ([1]; 30° C., 62% RH, 17 d, B = birefringence): fines, B | Observation ([1]; 30° C., 62% RH, 105 d, B = birefringence): white fines, B | Observation ([1]; 40° C., 75% RH, 17 d, B = birefringence): fines, B | Observation ([1]; 40° C., 75% RH, 33 d): white solids | Observation ([1]; 40° C., 75% RH, 105 d, B = birefringence): white fines, B | Observation ([1]; 60° C., 17 d, B = birefringence): fines, B | Observation ([1]; 60° C., 33 d): white to off-white in color | Observation ([1]; 60° C., 105 d): off-white | Observation ([1]; 80° C., 17 d, B = birefringence): fines, B sample faint pale yellow | Observation ([1]; 80° C., 33 d): pale yellow in color | Observation ([1]; RT, 98% RH, 18 d, B = birefringence): fines, B sample faint pale yellow | Observation ([1]; Table 5: 30° C., 62% RH, 17 d, B = birefringence): fines, B | Observation ([1]; Table 5: 30° C., 62% RH, 105 d, B = birefringence): white fines, B | Observation ([1]; Table 5: 30° C., 62% RH, 182 d, power outage 1 hour on day 125): white solids^d | Observation ([1]; Table 5: 40° C., 75% RH, 17 d, B = birefringence): fines, B | Observation ([1]; Table 5: 40° C., 75% RH, 33 d): white solids | Observation ([1]; Table 5: 40° C., 75% RH, 105 d, B = birefringence): white fines, B | Observation ([1]; Table 5: 40° C., 75% RH, 182 d, power outage 1 hour on day 125): white solids^e | Observation ([1]; Table 5: 60° C., 17 d, B = birefringence): fines, B | Observation ([1]; Table 5: 60° C., 33 d): white to off-white in color | Observation ([1]; Table 5: 60° C., 105 d): off-white | Observation ([1]; Table 5: 60° C., 182 d, temperature excursions: 105° C. 3 hours on day 113, power outage 1 hour on day 125): off-white to pale yellow^c | Observation ([1]; Table 5: 80° C., 17 d, B = birefringence): fines, B sample faint pale yellow | Observation ([1]; Table 5: 80° C., 33 d): pale yellow in color | Observation ([1]; Table 5: RT, 53% RH, 18 d, B = birefringence): fines, B sample faint pale yellow | Observation ([1]; Table 5: RT, 98% RH, 18 d, B = birefringence): fines, B sample faint pale yellow | Observation ([2]; 245° C., 1 hr): light tan solids | Observation ([2]; RT, 53% RH, 18 d, B = birefringence): fines, B sample faint pale yellow | Observation ([2]; Table 5: 245° C., 1 hr): light tan solids | appearance of the surface of the solid [3]: discolored slightly | purity of birinapant by HPLC after storage [3]: 99.9% | weight loss on heating (TGA) (TGA study): No weight loss | Cycle 1 Sorp Mass Change ([4]; target RH 5.0%, sample RH 5.1%): 0.000% | Cycle 1 Desorp Mass Change ([4]; target RH 5.0%, sample RH 5.5%): 0.020% | Hysteresis ([4]; target RH 15.0%): 0.192 | Cycle 1 Sorp Mass Change ([4]; target RH 15.0%, sample RH 15.6%): 0.365% | Cycle 1 Desorp Mass Change ([4]; target RH 15.0%, sample RH 16.1%): 0.557% | Hysteresis ([4]; target RH 25.0%): 0.197 | Cycle 1 Sorp Mass Change ([4]; target RH 25.0%, sample RH 25.1%): 0.732% | Cycle 1 Desorp Mass Change ([4]; target RH 25.0%, sample RH 25.6%): 0.929% | Hysteresis ([4]; target RH 35.0%): 0.237 | Cycle 1 Sorp Mass Change ([4]; target RH 35.0%, sample RH 34.7%): 1.001% | Cycle 1 Desorp Mass Change ([4]; target RH 35.0%, sample RH 35.3%): 1.238% | Hysteresis ([4]; target RH 45.0%): 0.308 | Cycle 1 Sorp Mass Change ([4]; target RH 45.0%, sample RH 45.0%): 1.224% | Cycle 1 Desorp Mass Change ([4]; target RH 45.0%, sample RH 45.6%): 1.532% | Hysteresis ([4]; target RH 55.0%): 0.379 | Cycle 1 Sorp Mass Change ([4]; target RH 55.0%, sample RH 54.7%): 1.436% | Cycle 1 Desorp Mass Change ([4]; target RH 55.0%, sample RH 55.4%): 1.815% | Hysteresis ([4]; target RH 65.0%): 0.425 | Cycle 1 Sorp Mass Change ([4]; target RH 65.0%, sample RH 64.7%): 1.652% | Cycle 1 Desorp Mass Change ([4]; target RH 65.0%, sample RH 65.5%): 2.078% | Hysteresis ([4]; target RH 75.0%): 0.428 | Cycle 1 Sorp Mass Change ([4]; target RH 75.0%, sample RH 74.7%): 1.908% | Cycle 1 Desorp Mass Change ([4]; target RH 75.0%, sample RH 75.3%): 2.336% | Hysteresis ([4]; target RH 85.0%): 0.347 | Cycle 1 Sorp Mass Change ([4]; target RH 85.0%, sample RH 84.9%): 2.263% | Cycle 1 Desorp Mass Change ([4]; target RH 85.0%, sample RH 86.0%): 2.610% | Cycle 1 Desorp Mass Change [4, 5]: 2.904% | Cycle 1 Sorp Mass Change [4, 5]: 2.904%
SMILES: CC[C@H](NC(=O)[C@H](C)NC)C(=O)N1C[C@@H](O)C[C@H]1Cc1c(-c2[nH]c3cc(F)ccc3c2C[C@@H]2C[C@H](O)CN2C(=O)[C@H](CC)NC(=O)[C@H](C)NC)[nH]c2cc(F)ccc12 [birinapant Form H, (2S,2'S)—N,N′-((2S,2'S)-((3S,3'S,5R,5′R)-((6,6′-difluoro-1H,1′H-[2,2′-biindole]-3,3′-diyl)bis(methylene))bis(3-hydroxypyrrolidine-5,1-diyl))bis(1-oxobutane-1,2-diyl))bis(2-(methylamino)propanamide)]
